Several values for one entry are separate records, joined by “and”; a condition that tells them apart may be missing. Equal values may be shown once. Read-outs that look alike come from different tables or passages of the source.
Columns and labels:
adult H. polygyrus = test: microbe, parasite or virus in culture; type: cell-based, Heligmosomoides polygyrus; details: anaerobic, 24 hours after treatment; for killing at 10 µM: Heligmosomoides polygyrus, 24 h, adult H. polygyrus, affected = score equal to or lower than 1.5, read-out: Percent Worms Affected; for # of Worms Affected: worms with score equal to or lower than 1.5
Procedure: To investigate the impact of the eleven benzimidazole derivatives under anaerobic conditions, an anaerobic chamber with an integrated incubator (Coy Laboratory Products, USA) was used. The same procedure was followed as described for the aerobic drug screening in adult H. polygyrus, but the incubation took place within the anaerobic chamber (37 °C, 85% N2, 10% CO2, 5% H2). Benzimidazole derivatives were tested at a concentration of 10 µM. For scoring, the plates had to be removed from the anaerobic chamber. The whole experiment was performed two times i.e., two independent biological replicates.
The activities of eleven benzimidazole derivatives were tested against adult H. polygyrus viability in vitro under aerobic (+, white boxplots) and anaerobic (–, coloured boxplots) conditions (see Methods). After 24-hour chemical treatment, worm viability was manually scored by an examiner using a scale from 0 (dead) to 3 (motile); DMSO was used as a negative control in both aerobic and anaerobic conditions; levamisole was used as a positive control in anaerobic conditions. The percentage of affected worms (i.e., worms with a score equal to or lower than 1.5) in each biological replicate is shown; data are from two biological replicates. Within each boxplot, black horizontal lines denote group medians, boxes span from the 25th to the 75th percentile of each group’s distribution, and whiskers extend to the maximum and minimum values. […]

[1] = target: C. elegans complex II (succinate dehydrogenase) (Caenorhabditis elegans, UniProt O62215+P41956+Q09545); test: In vitro complex II activity assay, C. elegans mitochondria; type: biochemical; details: for Percent in vitro activity, Complex II (single replicate Rep1-Rep4): individual biological replicates; for percent (%) in vitro complex II activity relative to solvent control: wild-type C. elegans
Sequence of C. elegans complex II (succinate dehydrogenase) (P41956 30-182): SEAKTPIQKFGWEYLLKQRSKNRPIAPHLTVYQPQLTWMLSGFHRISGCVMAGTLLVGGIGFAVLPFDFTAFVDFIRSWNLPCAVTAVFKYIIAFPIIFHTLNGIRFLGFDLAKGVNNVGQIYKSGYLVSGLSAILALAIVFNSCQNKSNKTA
Sequence of C. elegans complex II (succinate dehydrogenase) (Q09545 22-298): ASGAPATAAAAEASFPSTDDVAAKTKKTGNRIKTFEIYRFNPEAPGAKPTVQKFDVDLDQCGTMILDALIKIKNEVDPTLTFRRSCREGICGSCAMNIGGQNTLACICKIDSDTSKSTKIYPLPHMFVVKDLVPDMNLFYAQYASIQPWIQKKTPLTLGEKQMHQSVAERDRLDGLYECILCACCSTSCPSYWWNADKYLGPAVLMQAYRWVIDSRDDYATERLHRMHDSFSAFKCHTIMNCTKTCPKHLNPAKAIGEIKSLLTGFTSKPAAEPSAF
Sequence of C. elegans complex II (succinate dehydrogenase) (Q09508 32-646, further chain): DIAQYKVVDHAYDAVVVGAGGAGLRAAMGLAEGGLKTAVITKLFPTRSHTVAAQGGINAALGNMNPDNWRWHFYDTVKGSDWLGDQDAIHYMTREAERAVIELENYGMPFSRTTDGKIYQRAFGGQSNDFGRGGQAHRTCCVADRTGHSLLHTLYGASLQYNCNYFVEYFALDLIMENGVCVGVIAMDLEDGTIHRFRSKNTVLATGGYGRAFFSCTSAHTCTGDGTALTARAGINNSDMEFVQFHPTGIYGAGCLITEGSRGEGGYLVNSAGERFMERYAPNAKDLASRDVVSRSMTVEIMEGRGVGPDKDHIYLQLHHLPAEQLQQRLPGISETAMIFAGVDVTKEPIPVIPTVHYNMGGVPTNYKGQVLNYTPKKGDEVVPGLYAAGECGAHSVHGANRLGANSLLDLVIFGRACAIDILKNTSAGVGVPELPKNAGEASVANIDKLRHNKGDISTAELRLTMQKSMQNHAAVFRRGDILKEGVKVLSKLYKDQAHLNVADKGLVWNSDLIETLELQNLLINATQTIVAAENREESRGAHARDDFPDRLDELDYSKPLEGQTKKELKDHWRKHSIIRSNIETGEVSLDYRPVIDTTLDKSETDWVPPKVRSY
Sequence of C. elegans complex II (succinate dehydrogenase) (O62215 31-145): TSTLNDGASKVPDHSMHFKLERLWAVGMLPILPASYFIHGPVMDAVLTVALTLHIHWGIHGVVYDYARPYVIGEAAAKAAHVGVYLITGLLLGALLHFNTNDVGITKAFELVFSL
Summary of the method: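 Mitochondria isolated from adult C. elegans were diluted to 0.2 mg/mL protein and assayed for complex II by the DCIP-coupled method. A600 was read every 30 s over 15 min, with initial linear slope expressed as percent of solvent control. Screening was at 100 μM (≥3 biological replicates), followed by dose-response.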

L1 wild-type C. elegans = test: whole plant or invertebrate; details: Caenorhabditis elegans, 15 h, read-out: C. elegans KCN Survival Assay LC50
[2] = 100 µM compound, relative to solvent control, mean (SEM), read-out: % Activity Complex II
[3] = 100 μM of NPD compound, C. elegans mitochondria, 100 µM
[4] = 100 μM of NPD compound, C. elegans mitochondria, mean of four biological replicates, read-out: Percent in vitro activity, Complex II (Mean)

CCn1c(C(C)c2ccc(CC(C)C)cc2)nc2ccccc21 (centres unmarked) [STK951902]
killing at 10 µM (adult H. polygyrus; replicate 1): 100% | killing at 10 µM (adult H. polygyrus; replicate 2): 67% | # of Worms Affected (adult H. polygyrus; replicate 1): 6 | # of Worms Affected (adult H. polygyrus; replicate 2): 4

Clc1ccccc1OCCCCn1cnc2ccccc21 [Compound 7925804]
killing at 10 µM (adult H. polygyrus; replicate 1): 50% | # of Worms Affected (adult H. polygyrus; replicate 1): 3 | # of Worms Affected (adult H. polygyrus; replicate 2): 6 | Worm viability score, individual worms (Worm1-Worm20) (adult H. polygyrus; replicate 2, scale from 0 (dead) to 3 (motile)): 2 (3×) and 1.5 (2×) and 1

Clc1ccc(SCCCCn2cnc3ccccc32)cc1 [Compound 7925515]
killing at 10 µM (adult H. polygyrus; replicate 1): 100% | killing at 10 µM (adult H. polygyrus; replicate 2): 83% | # of Worms Affected (adult H. polygyrus; replicate 1): 5 | # of Worms Affected (adult H. polygyrus; replicate 2): 5

Clc1ccc(Cn2cnc3ccccc32)c(Cl)c1 [Compound 6750659]
killing at 10 µM (adult H. polygyrus; replicate 1): 50% | killing at 10 µM (adult H. polygyrus; replicate 2): 67% | # of Worms Affected (adult H. polygyrus; replicate 1): 3 | # of Worms Affected (adult H. polygyrus; replicate 2): 4

CC(C)Cc1ccc(C(C)c2nc3ccccc3n2C(C)C)cc1 (centres unmarked) [STK951903]
killing at 10 µM (adult H. polygyrus; replicate 1): 67% | killing at 10 µM (adult H. polygyrus; replicate 2): 83% | # of Worms Affected (adult H. polygyrus; replicate 1): 4 | # of Worms Affected (adult H. polygyrus; replicate 2): 5

COc1cc2c(cc1OC)C(c1ccc(-c3ccc(Cl)c(Cl)c3)o1)=NCC2 [NPD3577]
activity at 100 µM [1, 2]: 115% | Percent in vitro activity, Complex II (single replicate Rep1-Rep4) [1, 3]: 133.014% and 126.621% and 103.513% and 97.309% | activity at 100 µM [1, 4]: 115% | LC50 (L1 wild-type C. elegans): 16 µM

COc1cc2c(cc1OC)C(C(C)c1ccc(CC(C)C)cc1)=NCC2 (centres unmarked) [NPD10504]
activity at 100 µM [1, 2]: 106% | Percent in vitro activity, Complex II (single replicate Rep1-Rep4) [1, 3]: 86.801% and 136.285% and 101.347% and 99.840% | activity at 100 µM [1, 4]: 106% | LC50 (L1 wild-type C. elegans): 15.6 µM

CC(C)(C)c1ccc(CCOc2ncnc3ccccc23)cc1 [Fenazaquin, reference compound]
LC50 (L1 wild-type C. elegans): 0.5 µM

COc1cc2c(cc1OC)C(/C=C/c1ccc(N(C)C)cc1)=NCC2 [NPD6303]
activity at 100 µM [1, 2]: 101% | Percent in vitro activity, Complex II (single replicate Rep1-Rep4) [1, 3]: 124.122% and 89.817% and 91.578% and 100.352% | activity at 100 µM [1, 4]: 101% | LC50 (L1 wild-type C. elegans): 32.2 µM

C=C(C)[C@H]1Cc2c(ccc3c2O[C@@H]2COc4cc(OC)c(OC)cc4[C@@H]2C3=O)O1 [Rotenone, reference compound]
activity at 100 µM [1, 2]: 106% | activity at 100 µM ([1]; 100 μM inhibitor, in vitro activity relative to solvent control, N2 C. elegans mitochondria, Mean, read-out: CII Activity): 106% | Percent in vitro activity, Complex II (single replicate Rep1-Rep4) [1, 3]: 120.467% and 95.666% and 95.033% and 112.709% | activity at 100 µM [1, 4]: 106% | LC50 (L1 wild-type C. elegans): 0.8 µM

Cc1nc2ccccc2n1Cc1ccc(Br)cc1 [Compound 5567167]
killing at 10 µM (adult H. polygyrus; replicate 1): 50% | killing at 10 µM (adult H. polygyrus; replicate 2): 67% | # of Worms Affected (adult H. polygyrus; replicate 1): 3 | # of Worms Affected (adult H. polygyrus; replicate 2): 4

O=C(NCCc1ccc(Cl)cc1)c1ccccc1C(F)(F)F [Wact-11]
% Activity Complex II ([1]; 100 µM compound, relative to solvent control, mean (SEM)): 24.43 (0.62) % | CII Activity ([1]; 100 μM inhibitor, in vitro activity relative to solvent control, N2 C. elegans mitochondria, Mean): 24.430% | Percent in vitro activity, Complex II (single replicate Rep1-Rep4) ([1]; 100 μM of NPD compound, C. elegans mitochondria): 25.363% and 20.777% and 26.220% | Percent in vitro activity, Complex II (Mean) ([1]; 100 μM of NPD compound, C. elegans mitochondria, mean of four biological replicates): 24.431% | percent (%) in vitro complex II activity relative to solvent control ([1]; dose 0.0001 µM, Mean of replicates): 94.900% | percent (%) in vitro complex II activity relative to solvent control ([1]; dose 0.0001 µM, individual replicates): 104.455% and 86.022% and 94.224% | percent (%) in vitro complex II activity relative to solvent control ([1]; dose 0.0005 µM, Mean of replicates): 92.990% | percent (%) in vitro complex II activity relative to solvent control ([1]; dose 0.0005 µM, individual replicates): 105.223% and 78.802% and 94.946% | percent (%) in vitro complex II activity relative to solvent control ([1]; dose 0.001 µM, Mean of replicates): 95.541% | percent (%) in vitro complex II activity relative to solvent control ([1]; dose 0.001 µM, individual replicates): 97.389% and 94.470% and 94.765% | percent (%) in vitro complex II activity relative to solvent control ([1]; dose 0.0025 µM, Mean of replicates): 86.830% | percent (%) in vitro complex II activity relative to solvent control ([1]; dose 0.0025 µM, individual replicates): 88.172% and 83.871% and 88.448% | percent (%) in vitro complex II activity relative to solvent control ([1]; dose 0.005 µM, Mean of replicates): 71.382% | percent (%) in vitro complex II activity relative to solvent control ([1]; dose 0.005 µM, individual replicates): 74.194% and 66.667% and 73.285% | percent (%) in vitro complex II activity relative to solvent control ([1]; dose 0.013 µM, Mean of replicates): 42.140% | percent (%) in vitro complex II activity relative to solvent control ([1]; dose 0.013 µM, individual replicates): 41.167% and 38.863% and 46.390% | percent (%) in vitro complex II activity relative to solvent control ([1]; dose 0.025 µM, Mean of replicates): 24.327% | percent (%) in vitro complex II activity relative to solvent control ([1]; dose 0.025 µM, individual replicates): 28.111% and 21.045% and 23.827% | percent (%) in vitro complex II activity relative to solvent control ([1]; dose 0.063 µM, Mean of replicates): 7.305% | percent (%) in vitro complex II activity relative to solvent control ([1]; dose 0.063 µM, individual replicates): 6.298% and 1.536% and 14.079% | percent (%) in vitro complex II activity relative to solvent control ([1]; dose 0.125 µM, Mean of replicates): 1.918% | percent (%) in vitro complex II activity relative to solvent control ([1]; dose 0.125 µM, individual replicates): 3.226% and 0.000% and 2.527% | percent (%) in vitro complex II activity relative to solvent control ([1]; dose 0.313 µM, Mean of replicates): 0.000% | percent (%) in vitro complex II activity relative to solvent control ([1]; dose 0.313 µM, individual replicates): 0.000% | percent (%) in vitro complex II activity relative to solvent control ([1]; dose 0.625 µM, Mean of replicates): 2.509% | percent (%) in vitro complex II activity relative to solvent control ([1]; dose 0.625 µM, individual replicates): 0.000% and 7.527% | percent (%) in vitro complex II activity relative to solvent control ([1]; dose 1.5 µM, Mean of replicates): 0.000% | percent (%) in vitro complex II activity relative to solvent control ([1]; dose 1.5 µM, individual replicates): 0.000% | percent (%) in vitro complex II activity relative to solvent control ([1]; dose 3 µM, Mean of replicates): 0.717% | percent (%) in vitro complex II activity relative to solvent control ([1]; dose 3 µM, individual replicates): 0.000% and 2.151% | percent (%) in vitro complex II activity relative to solvent control ([1]; dose 15 µM, Mean of replicates): 2.650% | percent (%) in vitro complex II activity relative to solvent control ([1]; dose 15 µM, individual replicates): 0.000% and 6.144% and 1.805% | percent (%) in vitro complex II activity relative to solvent control ([1]; dose 37.5 µM, Mean of replicates): 1.029% | percent (%) in vitro complex II activity relative to solvent control ([1]; dose 37.5 µM, individual replicates): 0.000% and 0.922% and 2.166% | percent (%) in vitro complex II activity relative to solvent control ([1]; dose 75 µM, Mean of replicates): 0.000% | percent (%) in vitro complex II activity relative to solvent control ([1]; dose 75 µM, individual replicates): 0.000% | IC50 ([1]; wild-type (N2) mitochondria): 0.0071 µM

Cc1nc2ccccc2n1Cc1ccccc1Cl [Compound 6707368]
killing at 10 µM (adult H. polygyrus; replicate 1): 100% | killing at 10 µM (adult H. polygyrus; replicate 2): 33% | # of Worms Affected (adult H. polygyrus; replicate 1): 6 | # of Worms Affected (adult H. polygyrus; replicate 2): 2
